Data published in patent US7378447B2, “Muscarinic agonists” (Eli Lilly and Company, priority 2003, dated 2008).
Where two headings read alike, the source gives them in different places.

System: Male Sprague-Dawley rats
Details: six-hour delay

## Nc1c2c(nc3ccccc13)CCCC2 [Tacrine, tacrine]
Tacrine 3 mg/kg s.c. immediately after the sampling phase
  retention (errors in retention session): not
Tacrine 10 mg/kg s.c. immediately after the sampling phase
  retention (errors in retention session): significantly improved retention
